Assay results taken from patent publication US12492223B2, “Peptide compositions capable of binding lanthionine synthetase C-like protein (LanCl) and uses thereof” (priority 2021, dated 2025).
“And” between values parts separate entries of the source, which are not always exact repeats. Identical values can stand only once. Like-named read-outs stand apart in the source and are kept apart here. Positions of bridges follow the written chain, without caps; N, C: chain ends. Residues, ends and D or L forms follow the SMILES beside them.

What was measured:
HKx31 (H3N2) = assay type: in vivo, mice; design: key to PMN activity score / Viral titre activity score / BAL IL-6 activity score: 0: inactive; 1: less active than the peptide of SEQ ID NO:38; 2: comparable or more active than the peptide of SEQ ID NO:38
A549 cells = experiment: A549 proliferation + stress assay (restoration of viability of Taxol-treated cells, CellTiter-Glo); assay type: cell-based, human; conditions: 350 μM Taxol, 16 hours, peptide 1-100 μM
Procedure: An assay was developed that involves stressing cells with a dose of the chemotherapeutic agent, Taxol, that causes a 50% inhibition of cell viability when compared to untreated cells. Peptides were then added to the cell cultures at increasing concentrations to assess their ability to restore the viability of the Taxol-treated cells.
Briefly, A549 cells were cultured in opaque-walled multiwell plates with 50000 A549 cells/well in culture medium (DMEM medium ref 11960-044 Thermoscientific, +10% FBS ref 10270-106 Gibco, Thermoscientific, +1% Na pyruvate ref S8636-100 ML, Sigma, +1%, Glutamax ref35050061, Thermoscientific, +1% Penicillin-Streptomycin, ref 11074440001, Sigma) 100 μl per well for 96-well plates. Control wells containing medium without cells were used to obtain a value for background luminescence. Cells were incubated at 37° C. in 5% CO2 overnight.
100 μL of medium+DMSO+peptides or medium+Taxol+peptides (at the different concentrations) were added to each well and incubated for 16 hours at 37° C. 5% CO2.
Cell morphology, viability and confluency were assessed by phase contrast microscopy. The CellTiter-Glo® Luminescent Cell Viability Assay (G7571, Promega—a homogeneous method to determine the number of viable cells in culture based on quantitation of the ATP present) was then used to quantify the number of metabolically active cells, according to the manufacturer's instructions. 100 μl volume of CellTiter-Glo® Reagent was added to the 100 μL volume of cell culture medium present in each well, Contents were mixed for 2 minutes on an orbital shaker to induce cell lysis and after incubating the plates at room temperature for 10 minutes to stabilize luminescent signal luminescence was recorded with an integration time of 0.5 seconds using a CLARIOstar multi well luminometer (BMG Labtech)

[1] = target: recombinant LanCL1 (rLanCL1) (Homo sapiens, UniProt O43813); experiment: biochemical; assay type: binding
Procedure: Dry pellets of LANCL1 previously photolabelled with photoprobes in the presence of different peptides or PBS/DMSO vehicle were resuspended in 30 μL SDS loading buffer (Bio Rad's XT Sample Buffer containing 2.5% v/v 2-mercaptoethanol) and heated (60° C., 30 min). Proteins were resolved using SDS-PAGE (4-15% Criterion™ TGX Stain-Free™ Protein Gel, Bio Rad) and analyzed by in-gel fluorescence scanning using a ChemiDoc™ MP Imaging System (Bio Rad) with a green LED light as an excitation source and a BP600/20 nm emission filter. After in-gel fluorescence scanning, gels were stained with Coomassie blue to ensure the same amount of protein sample was loaded in each lane and imaged with the ChemiDoc™ MP Imaging System. Photoincorporation of each photoprobe in LANCL1 was quantitatively assessed by measuring the fluorescent intensity of the corresponding gel band using Image lab software (Bio Rad) and normalizing this value against the intensity value of LANCL1 gel band stained with Coomassie blue to control for loading differences.
(SEQ ID NO:22) from recombinant LanCL1 (rLanCL1).

Chung model rats = experiment: In vivo model of neuropathic pain (II): spinal nerve ligation (Chung) model, paw withdrawal threshold; design: species or system rat; conditions: mean ± SEM, n=6
Procedure: The spinal nerve ligation (Chung) model was prepared as described in Example 4, above. Briefly, sixty-four adult male Sprague-Dawley rats, 8-9 weeks old, weighing 250-350 g at the time of surgery, were purchased from Charles River UK Ltd. The animals were housed in groups of 4 in an air-conditioned room on a 12-hour light/dark cycle. Food and water were available ad libitum. Animals were allowed to acclimatise to the environment for experiments for three days by leaving them on a raised metal mesh for at least 40 minutes. The baseline paw withdrawal threshold (PWT) was examined using a series of graduated von Frey hairs for 3 consecutive days before surgery and re-assessed on the 7th day after surgery and on the 12th to 14th day after surgery before drug dosing.
Each rat was anaesthetized with 5% isoflurane mixed with oxygen (2 L per min) followed by an intramuscular (i.m.) injection of ketamine 60 mg/kg plus xylazine 10 mg/kg. The back was shaved and sterilized with povidone-iodine. The animal was placed in a prone position and a para-medial incision was made on the skin covering the L4-6 level. The L5 spinal nerve was carefully isolated and tightly ligated with 6/0 silk suture. The wound was then closed in layers after a complete haemostasis. A single dose of antibiotics (Amoxipen, 15 mg/rat, i.p.) was routinely given for prevention of infection after surgery. The animals were placed in a temperature-controlled recovery chamber until fully awake before being returned to their home cages.
Animals with validated neuropathic pain state were randomly divided into 4 experimental groups: Vehicle (5% DMSO first then in 0.9% saline), 3 mg/kg LAT9997, 3 mg/kg LAT9997×1, and 3 mg/kg LAT1233×1. Each group contained 6 animals.
RSVEGS (SEQ ID NO:9; LAT9997), SVEGS (SEQ NO: 62; LAT9997×1) and ALNSS (SEQ ID NO:63; LAT1233×1) were dissolved in 5% DMSO first then in 0.9% saline, which also served as the vehicle control. All compounds were provided from GenScript for Lateral Pharma. All vehicle/compounds were administrated intravenously at 1 ml/kg body weight.
The animals were placed in individual Perspex boxes on a raised metal mesh for at least 40 min. Starting from the filament of lowest force (1 gram (g)), each vFH filament was applied perpendicularly to the centre of the ventral surface of the paw until it slightly bent for 6 seconds. If the animal withdrew or lifted its paw upon stimulation, a filament with force immediately lower than that tested was used. If no response was observed, a filament with force immediately higher was then tested. The lowest amount of force required to induce reliable responses (positive in 2 out of 3 trials) was recorded as the value of the PWT.
PWT was assessed once daily for three days before surgery (pre D1, Pre D2 and D0) and on day 7 following surgery for monitoring the development of mechanical allodynia.
All drug tests were carried out on the 13th to 17th day after surgery. […]
One-way analysis of variance (ANOVA) (IBM statistics SPSS, Version 27) was used for statistical analysis to compare PWT of different groups at the same time points. When appropriate, Fisher's Least Significant Difference (LSD) post-hoc test was used to compare drug treatment groups to the control groups. A paired Student's t-test (Microsoft Excel 365) was used to compare values of different time points in the same group. To characterise the drug-induced change in PWT relative to vehicle, vehicle values were subtracted from the appropriate drug values. The significance level was set at P<0.05.

[2] = 1 hour after 3 mg/kg intravenously, listed as LAT1233x1
[3] = 1 hour after 3 mg/kg intravenously, listed as LAT1233×1
[4] = 2 hours after 3 mg/kg intravenously, listed as LAT1233x1
[5] = 2 hours after 3 mg/kg intravenously, listed as LAT1233×1
[6] = 4 hours after 3 mg/kg intravenously, listed as LAT1233x1
[7] = 4 hours after 3 mg/kg intravenously, listed as LAT1233×1
[8] = Pre-dosing, 3 mg/kg group, listed as LAT1233x1, 3 mg/kg
[9] = Pre-dosing, 3 mg/kg group, listed as LAT1233×1, 3 mg/kg
[10] = 1 hour after 3 mg/kg intravenously, listed as LAT9997
[11] = 2 hours after 3 mg/kg intravenously, listed as LAT9997
[12] = 4 hours after 3 mg/kg intravenously, listed as LAT9997
[13] = Pre-dosing, 3 mg/kg group, listed as LAT9997, 3 mg/kg
[14] = 1 hour after 3 mg/kg intravenously
[15] = 2 hours after 3 mg/kg intravenously
[16] = 4 hours after 3 mg/kg intravenously

Chain of recombinant LanCL1 (rLanCL1) (O43813 whole entry, species assumed): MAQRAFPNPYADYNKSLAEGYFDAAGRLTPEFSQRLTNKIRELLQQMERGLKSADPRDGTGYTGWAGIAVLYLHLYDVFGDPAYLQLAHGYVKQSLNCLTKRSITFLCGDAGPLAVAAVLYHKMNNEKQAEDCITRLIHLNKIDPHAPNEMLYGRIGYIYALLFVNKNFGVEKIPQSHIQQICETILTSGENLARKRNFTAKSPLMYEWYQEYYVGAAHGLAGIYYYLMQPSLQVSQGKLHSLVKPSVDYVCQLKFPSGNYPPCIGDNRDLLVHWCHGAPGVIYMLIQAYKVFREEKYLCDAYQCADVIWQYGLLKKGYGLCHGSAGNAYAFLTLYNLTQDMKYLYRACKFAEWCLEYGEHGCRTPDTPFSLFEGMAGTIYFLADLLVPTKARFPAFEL

Molecule: 60 (RALN) [compound 60]
- BAL IL-6 activity score (HKx31 (H3N2); mouse, in vivo, 10 mg/kg): 2
- PMN activity score (HKx31 (H3N2); mouse, in vivo, 10 mg/kg): 2
- Viral titre activity score (HKx31 (H3N2); mouse, in vivo, 10 mg/kg): 2
- Estimated Activity in A549 proliferation + stress assay (A549 cells): WEAK (some or variable restoration of cell viability at 50-100 μM)

Molecule: 63 (ALNSS) [compound 63]
- Viral titre activity score (HKx31 (H3N2); single 10 mg/kg dose, day 3, relative to SEQ ID NO:38): 0
- Estimated Activity in A549 proliferation + stress assay (A549 cells): MODERATE (moderate dose-dependent restoration of cell viability at >25 μM)

Molecule: CC[C@H](C)[C@H](NC(=O)[C@H](CCCNC(=N)N)NC(=O)[C@H](CC(C)C)NC(=O)[C@@H](N)Cc1ccc(O)cc1)C(=O)N[C@H](C(=O)N[C@@H](CCC(N)=O)C(=O)N[C@H]1CSSC[C@@H](C(=O)NCC(=O)N[C@@H](Cc2ccccc2)C(=O)O)NC(=O)[C@H](CO)NC(=O)CNC(=O)[C@H](CCC(=O)O)NC(=O)[C@H](C(C)C)NC(=O)[C@H](CO)NC(=O)[C@H](CCCNC(=N)N)NC1=O)C(C)C [compound 1] (H-YLRIVQCRSVEGSCGF-OH; disulfide 7-14)
- EC50 [1]: 50 to 100 µM

Molecule: ALNSS [SEQ ID NO: 63]
- contralateral Paw withdrawal threshold (Chung model rats; [2]): 15.00 ± 0.00 g
- ipsilateral Paw withdrawal threshold (Chung model rats; [2]): 10.67 ± 1.67 ▴** g
- contralateral Paw withdrawal threshold (Chung model rats; [3]): 15.00 ± 0.00 g
- ipsilateral Paw withdrawal threshold (Chung model rats; [3]): 10.67 ± 1.67 g
- contralateral Paw withdrawal threshold (Chung model rats; [4]): 14.17 ± 0.83 g
- ipsilateral Paw withdrawal threshold (Chung model rats; [4]): 11.50 ± 1.80 ▴** g
- contralateral Paw withdrawal threshold (Chung model rats; [5]): 14.17 ± 0.83 g
- ipsilateral Paw withdrawal threshold (Chung model rats; [5]): 11.50 ± 1.80 g
- contralateral Paw withdrawal threshold (Chung model rats; [6]): 15.00 ± 0.00 g
- ipsilateral Paw withdrawal threshold (Chung model rats; [6]): 10.17 ± 1.17 ▴** g
- contralateral Paw withdrawal threshold (Chung model rats; [7]): 15.00 ± 0.00 g
- ipsilateral Paw withdrawal threshold (Chung model rats; [7]): 10.17 ± 1.17 g
- contralateral Paw withdrawal threshold (Chung model rats; [8]): 15.00 ± 0.00 g
- ipsilateral Paw withdrawal threshold (Chung model rats; [8]): 3.33 ± 0.42 g
- contralateral Paw withdrawal threshold (Chung model rats; [9]): 15.00 ± 0.00 g
- ipsilateral Paw withdrawal threshold (Chung model rats; [9]): 3.33 ± 0.42 g

Molecule: RSVEGS [SEQ ID NO: 9]
- contralateral Paw withdrawal threshold (Chung model rats; [10]): 15.00 ± 0.00 g
- ipsilateral Paw withdrawal threshold (Chung model rats; [10]): 7.83±1.72 g and 7.83 ± 1.72 ^ g
- contralateral Paw withdrawal threshold (Chung model rats; [11]): 15.00 ± 0.00 g
- ipsilateral Paw withdrawal threshold (Chung model rats; [11]): 9.67±1.73 g and 9.67 ± 1.73 ▴* g
- contralateral Paw withdrawal threshold (Chung model rats; [12]): 15.00 ± 0.00 g
- ipsilateral Paw withdrawal threshold (Chung model rats; [12]): 8.17±1.60 g and 8.17 ± 1.60 ^ g
- contralateral Paw withdrawal threshold (Chung model rats; [13]): 14.17 ± 0.83 g
- ipsilateral Paw withdrawal threshold (Chung model rats; [13]): 3.33 ± 0.42 g

Molecule: SVEGS [SEQ ID NO: 62]
- contralateral Paw withdrawal threshold (Chung model rats; [14]): 15.00 ± 0.00 g
- ipsilateral Paw withdrawal threshold (Chung model rats; [14]): 11.17 ± 1.74 ▴** g
- contralateral Paw withdrawal threshold (Chung model rats; [15]): 15.00 ± 0.00 g
- ipsilateral Paw withdrawal threshold (Chung model rats; [15]): 12.67 ± 1.56 ▴*** g
- contralateral Paw withdrawal threshold (Chung model rats; [16]): 15.00 ± 0.00 g
- ipsilateral Paw withdrawal threshold (Chung model rats; [16]): 11.00 ± 1.41 ▴** g
- contralateral Paw withdrawal threshold (Chung model rats; Pre-dosing, 3 mg/kg group): 15.00 ± 0.00 g
- ipsilateral Paw withdrawal threshold (Chung model rats; Pre-dosing, 3 mg/kg group): 3.33 ± 0.42 g
